Data as given in patent US7745574B2, “Compounds that regulate apoptosis” (The Burnham Institute, priority 2005, dated 2010).
[ ]: non-standard residue; d: D form. Ahx = NCCCCCC(=O)O

Columns and labels:
[1] = test system: MDA-MB435 breast carcinoma cells; assay: MDA-MB435 tumors in SCID mice; assay type: in vivo
Description: Animal studies. Female SCID mice (6-week-old) (Tacomic) were injected with 10^6 MDA-MB435 breast carcinoma cells. Tumors were palpable on day 7. On days 10 and 13, test peptides (620 μg in 50 μL PBS) were injected into the tumor areas of 5 mice. Tumor volumes (1×w^2) were determined using calipers. No weight changes were observed. Established tumors in control mice were injected with test peptides and tumor tissues were excised and sectioned after 3 days. Tissues were fixed (10% buffered formalin), then rapidly paraffin-embedded. Apoptosis was detected by the TUNEL assay.

Bcl-2 [2] = biological target: T1, Bcl-2 (Homo sapiens, UniProt P10415); assay: Competition assay of Nur77/ΔDBD binding with Bcl-2; design: expressed in transfected cells; host or cells: HEK293T
Description: Nur77/Bcl-2 interaction assays—Reporter gene assays using NurRE-tk-CAT in CV-1 cells, and GST pull-down assay were described previously (Li, et al. 2000 Science 289:1159-1164). For the mammalian two-hybrid assays, CV-1 cells were co-transfected with pcDNA-Gal4TAD-Nur77 or pcDNA-Gal4TAD-Nur77/ΔDBD and pcDNA-Gal4 DBD-Bcl-2/ΔTM along with a luciferase reporter gene driven by four copies of the Gal-4-binding site. The cells were harvested and reporter gene activity was measured. For Co-IP assays, HEK293T cells were transiently transfected with various expression plasmids using a modified calcium phosphate precipitation method (Wu et al, 1997) in the presence of caspase inhibitors (zVAD-fmk) to prevent degradation of Nur77 protein due to apoptosis. Cells were suspended in lysis buffer (50 mM Tris-HCl, PH7.4; 150 mM NaCl; 20 mM EDTA; 1% NP-40; 1 mM PMSF; 50 μg/ml Leupeptin; […] Aprotinin; 0.1 mM Na3VO4; and 1 mM DTT). Cells extracts were cleared by incubation with the Protein A/G plus Agarose beads (Santa Cruz) and then incubated with appropriate antibody and 30 μl of Protein A or G plus Agarose beads overnight at 4° C. […] Immunoreactive products were detected by chemiluminescence with an enhanced chemiluminescence system (ECL) (Amersham).
Target sequence in this assay (P10415 whole entry, the tested form may be a part): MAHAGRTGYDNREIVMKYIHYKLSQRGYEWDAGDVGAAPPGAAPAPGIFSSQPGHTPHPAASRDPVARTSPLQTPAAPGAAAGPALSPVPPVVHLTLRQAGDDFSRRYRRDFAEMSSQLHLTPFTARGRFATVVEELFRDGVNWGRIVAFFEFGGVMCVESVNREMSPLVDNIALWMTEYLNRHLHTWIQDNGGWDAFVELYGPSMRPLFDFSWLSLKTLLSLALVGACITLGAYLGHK

H460 lung cancer cells [3] = assay: Apoptosis in H460 lung cancer cells; assay type: cell-based
Description: Bcl-2 siRNAs and antisense oligonucleotides-The target siRNA SMARTpools for Bcl-2 and Bak and the siRNA oligonucleotide for Nur77 (5'-[…] NO: 67) were purchased from Dharmacon Research Inc. Target or control siRNA were transfected at a final concentration of 200 nM into cells at 40% confluency using Oligofectamine reagent (Invitrogen) according to the manufacturer's recommendations. After 48 h, cells were analyzed. Bcl-2 antisense oligonucleotide targeting Bcl-2 and negative control oligonucleotides were obtained from Calbiochem. […] The percentages of apoptotic cells were determined by counting 300 GFP-positive cells, scoring cells having nuclear fragmentation and/or chromatin condensation. Cell culture. […] HEK293T embryonic kidney cells were grown in DME medium supplemented with 10% FBS. Jurkat and Jurkat cells stably expressing Bcl-2 were kindly provided by Dr. John Reed, and they were maintained in RPMI1640 medium.

H460 lung cancer cells [4] = assay: Apoptosis in H460 lung cancer cells; assay type: cell-based; conditions: H460 cells; peptides conjugated with CPP, 10 μM
Bcl-2 [5] = biological target: T1, Bcl-2; assay: Bcl-2 conformational change, anti-Bcl-2/BH3 antibody staining of HEK293T cells transfected with Bcl-2; assay type: cell-based; design: expressed in transfected cells; host or cells: HEK293T
Description: Such a Bcl-2 conformation is recognized by an anti-Bcl-2 antibody raised against the Bcl-2 BH3 domain. To determine whether NuBCP-9 induced a Bcl-2 conformational change, flow cytometric assays were conducted which HEK293T cells transfected with Bcl-2 were exposed to NuBCPs and subsequently stained with the anti-Bcl-2/BH3 antibody.
Target sequence in this assay (P10415 whole entry, the tested form may be a part): as above

breast cancer = assay: Treatment of a patient diagnosed with breast cancer; assay type: in vivo; conditions: intravenous dose at regular intervals over six weeks
Text: A patient diagnosed with breast cancer is selected for treatment with the D-NuBCP-9-r8 peptide. The patient is given a therapeutically effective intravenous dose of the peptide at regular intervals over a six week period. Following the end of the treatment period it is observed that the breast cancer has regressed.

Bcl-2 [6] = biological target: T1, Bcl-2; assay: Immunoprecipitation of endogenous Bcl-2 by anti-Bcl-2/BH3 antibody in treated cells; assay type: cell-based; design: precipitated endogenous Bcl-2 in cells treated with L-NuBCP-9-r8 or D-NuBCP-9-r8; endogenous in cells
Target sequence in this assay (P10415 whole entry, species assumed, the tested form may be a part): as the sequence (P10415 whole entry, the tested form may be a part) above

Substance: acetyl------------fsrslhsllGXrrrrrrrr-amide (Ac-[dF][dS][dR][dS][dL][dH][dS][dL][dL]G[Ahx][dR][dR][dR][dR][dR][dR][dR][dR]-NH2; SMILES CC(=O)N[C@H](Cc1ccccc1)C(=O)N[C@H](CO)C(=O)N[C@H](CCCNC(=N)N)C(=O)N[C@H](CO)C(=O)N[C@H](CC(C)C)C(=O)N[C@H](Cc1c[nH]cn1)C(=O)N[C@H](CO)C(=O)N[C@H](CC(C)C)C(=O)N[C@H](CC(C)C)C(=O)NCC(=O)NCCCCCC(=O)N[C@H](CCCNC(=N)N)C(=O)N[C@H](CCCNC(=N)N)C(=O)N[C@H](CCCNC(=N)N)C(=O)N[C@H](CCCNC(=N)N)C(=O)N[C@H](CCCNC(=N)N)C(=O)N[C@H](CCCNC(=N)N)C(=O)N[C@H](CCCNC(=N)N)C(=O)N[C@H](CCCNC(=N)N)C(N)=O) [D-NuBCP-9-r8]
- growth of tumors ([1]; SCID mice, 620 μg injected into tumor areas on days 10 and 13, vs control NuBCP-9/AA-r8): dramatically suppressed
- apoptosis of tumor cells in vivo ([1]; TUNEL assay): potently induced
- binding of Nur77/ΔDBD with Bcl-2 in presence of peptide (Bcl-2 [2]): abrogated
- apoptotic function after Bcl-2 antisense oligonucleotides (H460 lung cancer cells [3]; Bcl-2 antisense oligonucleotides): attenuated
- apoptotic effect after transfection of Bcl-2 siRNA (H460 lung cancer cells [3]; H460 cells, Bcl-2 siRNA vs control GFP siRNA): inhibited
- apoptotic effect (H460 lung cancer cells [4]): retained and even slightly enhanced
- Bcl-2 immunofluorescence by anti-Bcl-2/BH3 antibody (Bcl-2 [5]; flow cytometry): strong Bcl-2 immunofluorescence
- Bcl-2 staining by anti-Bcl-2/BH3 antibody (Bcl-2 [5]; fluorescence microscopy): strongly stained
- breast cancer outcome after treatment (breast cancer): regressed
- precipitation of endogenous Bcl-2 by anti-Bcl-2/BH3 antibody (Bcl-2 [6]): precipitated
